Measured values from article PMC4029803, “Glutathione-Binding Site of a Bombyx mori Theta-Class Glutathione Transferase” (PLoS ONE, 2014).
Numbering of substitutions follows the chain as printed. Names may count otherwise.

Columns and labels:
bmGSTT [1] = molecular target: T1, bmGSTT (Bombyx mori, UniProt B0LB14, H40A); experiment: spectrophotometric GST assay, […] nm; assay type: biochemical; conditions: 5 mM GSH; read-out: bmGSTT mutants / H40A
T1 construct: cDNA from larval fat body; primers encode N-terminal MVLKLYYD and C-terminal AANSKL
T1 sequence (B0LB14 1-229 H40A): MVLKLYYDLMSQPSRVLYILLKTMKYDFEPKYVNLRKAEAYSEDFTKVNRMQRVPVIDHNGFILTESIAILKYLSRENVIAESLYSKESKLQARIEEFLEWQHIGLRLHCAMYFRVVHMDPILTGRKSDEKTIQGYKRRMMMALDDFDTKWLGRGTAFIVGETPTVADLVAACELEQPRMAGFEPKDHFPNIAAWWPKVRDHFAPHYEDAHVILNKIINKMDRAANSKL

bmGSTT [2] = molecular target: T2, bmGSTT (Bombyx mori, UniProt B0LB14); experiment: spectrophotometric GST assay, […] nm; assay type: biochemical; conditions: 5 mM GSH; Table 1 activity at pH 8; read-out: WT
T2 construct: cDNA from larval fat body; primers encode N-terminal MVLKLYYD and C-terminal AANSKL
T2 sequence (B0LB14 1-229): T1 sequence (B0LB14 1-229 H40A) with A40H

bmGSTT [3] = molecular target: T3, bmGSTT (Bombyx mori, UniProt B0LB14, E66A); experiment: spectrophotometric GST assay, […] nm; assay type: biochemical; conditions: 5 mM GSH; read-out: bmGSTT mutants / E66A
T3 construct: cDNA from larval fat body; primers encode N-terminal MVLKLYYD and C-terminal AANSKL
T3 sequence (B0LB14 1-229 E66A): T1 sequence (B0LB14 1-229 H40A) with A40H, E66A

bmGSTT [4] = molecular target: T4, bmGSTT (Bombyx mori, UniProt B0LB14, R107A); experiment: spectrophotometric GST assay, […] nm; assay type: biochemical; conditions: 5 mM GSH; read-out: bmGSTT mutants / R107A
T4 construct: cDNA from larval fat body; primers encode N-terminal MVLKLYYD and C-terminal AANSKL
T4 sequence (B0LB14 1-229 R107A): T1 sequence (B0LB14 1-229 H40A) with A40H, R107A

purified protein = substrate: O=[N+]([O-])c1ccc(CCBr)cc1; experiment: purified protein; conditions: 5 mM GSH

O=[N+]([O-])c1ccc(Cl)c([N+](=O)[O-])c1 [CDNB, 1-chloro-2,4-dinitrobenzene]
Km (bmGSTT [1]): 520 µM | Km (bmGSTT [2]): 1.5 mM | Km (bmGSTT [3]): 12 mM | Km (bmGSTT [4]): 960 µM

B1: bmGSTT (Bombyx mori; H40A) (protein)
chain: T1 sequence (B0LB14 1-229 H40A)
Km (purified protein): 2.3 (0.22) mM

B2: bmGSTT (Bombyx mori; V54A) (protein)
chain: T1 sequence (B0LB14 1-229 H40A) with A40H, V54A
Km (purified protein): 0.50 (0.083) mM

B3: bmGSTT (Bombyx mori) (protein)
chain: T1 sequence (B0LB14 1-229 H40A) with A40H
Km (purified protein; Table 1 activity at pH 8): 0.13 (0.03) mM

B4: bmGSTT (Bombyx mori; R107A) (protein)
chain: T1 sequence (B0LB14 1-229 H40A) with A40H, R107A
Km (purified protein): 0.52 (0.071) mM
